The values below come from patent US20090209601A1, “USE OF RXR AGONISTS FOR THE TREATMENT OF OSTEOARTHRITIS” (Wyeth, priority 2008, published 2009).

One assay relates to RXRα. Description: RXRα expression by qRT-PCR in cytokine-treated primary articular chondrocytes. In kind it is cell-based. The settings on record: primary human articular chondrocytes (n=4 donors), monolayer culture, 18 hours; IL-1β 1 ng/ml, TNFα 10 ng/ml; vs vehicle/untreated. Here is the method:
(§1) For isolation of RNA from chondrocytes in monolayer culture, pellets were digested with collagenase (2.5 mg/ml, Sigma, St Louis, Mo.) and RNA was subsequently prepared using TRIzol reagent (Invitrogen) according to the manufacturer's protocol. Primary chondrocytes in monolayer culture were lysed by direct addition of TRIzol reagent followed by standard TRIzol RNA purification methodologies.
(§2) Chondrocytes were isolated from fresh human articular cartilage using a standard method previously described (Heinlein et al., Endocr. Rev. 25:276-308 (2004)). Cells were cultured in 10% FBS containing DMEM/F12 growth media for 2-3 days in 12 well culture plates at a density of 1-2×10^6 cells/well. Chondrocyte cultures were stimulated with cytokines (TNFα: 10 ng/ml; IL-1β: 1 ng/ml) for 18 hours.
(§3) cDNA was prepared from purified RNA using the High-Capacity cDNA Archive Kit (Applied Biosystems, catalog #4322171) according to the manufacturer's instructions. Quantitative real-time PCR was performed using either human TaqMan® Gene Expression assays or TaqMan® Low Density Arrays (TLDA) from Applied Biosystems. Thermal cycling was performed using either an ABI Prism 7900 Sequence Detection System (for TLDA) or an ABI Prism 7700 Sequence Detection System (for individual TaqMan® Gene Expression Assays). […]
On the technique in general: Real-time PCR tracks product formation cycle by cycle.

The subject of the next assay is RXRγ. The assay can be described thus: RXRγ expression by qRT-PCR in cytokine-treated primary articular chondrocytes. In kind it is cell-based. The settings on record: primary human articular chondrocytes (n=4 donors), monolayer culture, 18 hours; IL-1β 1 ng/ml, TNFα 10 ng/ml; vs vehicle/untreated. Here is the method: as §1, §2, §3

“IL-1: inflammatory cytokine purchased from R&D Systems, used to stimulate chondrocyte cultures”: in the assay with RXRα, the RXRα expression entry is recorded as “significantly reduced”. Besides, in the assay on RXRγ, the RXRγ expression result is “not”.
